# From US20190010167A1, “INHIBITORS OF THE MENIN-MLL INTERACTION” (Vitae Pharmaceuticals, Inc., priority 2015, published 2019)
# Tests used:
# [1] = molecular target: T1, wild-type menin / MLL-AF9 fusion protein (Homo sapiens, UniProt O00255); experiment: AlphaLISA menin/MLL binding assay, wild-type menin (Assay 1); settings: biotinylated wild-type menin 5 nM, MLL-AF9-FLAG lysate
# T1 construct: made in house; host or cells: E. coli (menin); HEK293 cleared lysate (MLL-AF9-FLAG)
# T1 sequence (O00255 1-610): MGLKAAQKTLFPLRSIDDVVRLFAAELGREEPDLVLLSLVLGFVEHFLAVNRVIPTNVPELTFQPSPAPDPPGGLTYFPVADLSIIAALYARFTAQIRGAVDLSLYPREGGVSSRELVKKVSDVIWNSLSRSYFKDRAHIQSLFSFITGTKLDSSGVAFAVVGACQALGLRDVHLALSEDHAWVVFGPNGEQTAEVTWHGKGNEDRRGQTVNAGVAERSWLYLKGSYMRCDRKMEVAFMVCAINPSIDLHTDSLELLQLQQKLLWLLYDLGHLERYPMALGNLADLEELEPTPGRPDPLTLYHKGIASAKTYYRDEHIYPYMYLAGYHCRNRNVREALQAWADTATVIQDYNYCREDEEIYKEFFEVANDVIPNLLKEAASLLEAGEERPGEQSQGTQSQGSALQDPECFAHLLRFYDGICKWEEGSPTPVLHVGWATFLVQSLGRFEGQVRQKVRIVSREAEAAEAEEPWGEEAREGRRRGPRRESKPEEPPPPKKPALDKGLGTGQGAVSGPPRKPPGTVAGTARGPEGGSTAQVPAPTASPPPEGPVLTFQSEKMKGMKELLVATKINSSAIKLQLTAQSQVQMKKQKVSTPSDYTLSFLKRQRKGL
# Procedure, shortened: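 Biotinylated wild-type or mutated menin (5 nM, E. coli-expressed) was preincubated 30 min at RT with compound and HEK293 lysate containing MLL1-1,396–AF9 1-92–FLAG. Buffer was 50 mM Tris-HCl pH 7.4, 5% DMSO, 50 mM NaCl, 0.01% BSA, 1 mM DTT. Anti-FLAG acceptor and streptavidin donor beads (10 μg/mL each) were then added for 60 min. IC50 came from a four-parameter fit of the Alpha signal inhibition.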
# [2] = molecular target: T2, menin/MLL (Gal4-Menin and MLL1-46-VP16) in HEK293 cells (Homo sapiens, UniProt O00255); experiment: Mammalian cellular two-hybrid assay in HEK293 cells (Assay 2, cell assay); format: cell-based; settings: Gal4-Menin/MLL1-46-VP16 two-hybrid, NanoLuc luciferase reporter, 16-18 h
# T2 construct: expressed in transfected cells; host or cells: HEK293 (ATCC)
# Protocol: Potencies of inhibitor compounds against menin/MLL were tested in a mammalian cellular two-hybrid assay system. HEK293 cells (American Type Culture Collection (ATCC); Manassas, Va.) were co-transfected with three plasmids: one encoding Gal4-Menin (200 ng per 10^6 cells), another encoding MLL1-46-VP16 (100 ng per 10^6 cells), and a reporter plasmid pNL3.3-4×UAS (500 ng per 10^6 cells) encoding secreted NanoLuc® luciferase (Promega) with the upstream 4×UAS repeats for Gal4 binding. Transfection was performed in Opti-MEM® media using Lipofectamine® LTX with Plus™ Reagent (ThermoFisher Scientific) according to manufacturer's protocol. Cells were incubated with transfection reagents at 37° C. 5% CO2 for 5-6 h, harvested by trypsinization and centrifugation at 300×g for 5 min and resuspended in Gibco® DMEM media (phenol red-free, no antibiotics) containing 10% delipidated fetal bovine serum (FBS) (ThermoFisher Scientific). Concentration of cells in the media was adjusted to 3.5×10^5 cells/ml, and 100 μl of the cell suspension was dispensed into each well of 96-well Costar™ black clear bottom cell culture plates (Fisher Scientific). Tested compounds were added as 100 μL of 2× solutions in the media. Final concentration of DMSO was 0.1% in all wells. The cells were incubated with tested compounds at 37° C. 5% CO2 for 16-18 h. At the end of the incubation, 40 μL of the conditioned media from each well was transferred into each well of 96-well Costar™ black half-area plates (Fisher Scientific), to which 40 μl of 2× reconstituted NanoGlo® luciferase assay reagent (Promega) was added and thoroughly mixed on a microshaker for 2-3 min. Remaining media in the culture plates was removed by emptying the wells and blotting the plates on filter paper. The cells were lysed with 1× CellTiter-Glo® Luminescent Cell Viability Assay reagent (Promega) for assessing toxicity of the tested compounds. Both, Nano-Glo® and CellTiter-Glo® luminescence intensities were measured on EnVision® multilabel plate reader (PerkinElmer). Percent inhibition values were calculated based on Nano-Glo® luciferase activity observed with the tested compounds vs. DMSO control and commercially available menin inhibitor MI-2-2 (4-(4-(5,5-Dimethyl-4,5-dihydrothiazol-2-yl)piperazin-1-yl)-6-(2,2,2-trifluoroethyl)thieno[2,3-d]pyrimidine) (EMD Millipore, Cat. No. 444825) incubated with cells at 5 μM. These percent inhibition values were regressed against compound concentrations in the assay using non-linear 4-parameter logit curve fitting (XLFit, IDBS). Half maximal inhibitory concentrations (IC50) were calculated as the parameters of the fit corresponding to the inflection points on semi-logarithmic dose-response curves.
# T2 sequence (P04386 1-147 partner limits assumed, species assumed, one chain of several): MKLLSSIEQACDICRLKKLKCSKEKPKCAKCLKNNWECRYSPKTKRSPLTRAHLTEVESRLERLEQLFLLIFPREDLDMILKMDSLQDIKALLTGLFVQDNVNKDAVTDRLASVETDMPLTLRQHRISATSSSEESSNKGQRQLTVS
Structure (SMILES),IC50 [1] [nM],IC50 [2] [nM]
"Cc1c(CN2CCC3(CCN(c4ncnc5sc(CC(F)(F)F)cc45)C3)C2)ccc2[nH]c(C#N)cc12 (single isomer, unassigned) [Example 30a, 4-methyl-5-((7-(6-(2,2,2-trifluoroethyl)thieno[2,3-d]pyrimidin-4-yl)-2,7-diazaspiro[4.4]nonan-2-yl)methyl)-1H-indole-2-carbonitrile]",< 100,< 100
"FC(F)(F)Cc1cc2c(N3CCC4(CC3)CN(Cc3ccccc3)C4)ncnc2s1 [Example 1, 4-(2-benzyl-2,7-diazaspiro[3.5]nonan-7-yl)-6-(2,2,2-trifluoroethyl) thieno[2,3-d]pyrimidine]",≥ 1000,≥ 1000
"CC(C)CN1CC2(CCN(c3ncnc4sc(CC(F)(F)F)cc34)CC2)C1 [Example 2, 4-(2-isobutyl-2,7-diazaspiro[3.5]nonan-7-yl)-6-(2,2,2-trifluoroethyl)thieno[2,3-d]pyrimidine]",100 to 1000,≥ 1000
"CC(C)(C)CN1CC2(CCN(c3ncnc4sc(CC(F)(F)F)cc34)CC2)C1 [Example 18, 4-(2-neopentyl-2,7-diazaspiro[3.5]nonan-7-yl)-6-(2,2,2-trifluoroethyl)thieno[2,3-d]pyrimidine]",100 to 1000,≥ 1000
"N#Cc1ccc2c(CN3CC4(CCN(c5ncnc6sc(CC(F)(F)F)cc56)CC4)C3)c[nH]c2c1 [Example 20, 3-((7-(6-(2,2,2-trifluoroethyl)thieno[2,3-d]pyrimidin-4-yl)-2,7-diazaspiro[3.5]nonan-2-yl)methyl)-1H-indole-6-carbonitrile]",100 to 1000,≥ 1000
"CCC(C)CN1CC2(CCN(c3ncnc4sc(CC(F)(F)F)cc34)CC2)C1 (stereo not drawn) [Example 22, 4-(2-(2-methylbutyl)-2,7-diazaspiro[3.5]nonan-7-yl)-6-(2,2,2-trifluoroethyl)thieno[2,3-d]pyrimidine]",100 to 1000,≥ 1000
"FC(F)(F)Cc1cc2c(N3CCC4(CCN(Cc5ccccc5)C4)CC3)ncnc2s1 [Example 23, 4-(2-benzyl-2,8-diazaspiro[4.5]decan-8-yl)-6-(2,2,2-trifluoroethyl)thieno[2,3-d]pyrimidine]",100 to 1000,≥ 1000
"CC(C)CN1CCC2(CCN(c3ncnc4sc(CC(F)(F)F)cc34)CC2)C1 [Example 24, 4-(2-isobutyl-2,8-diazaspiro[4.5]decan-8-yl)-6-(2,2,2-trifluoroethyl)thieno[2,3-d]pyrimidine]",100 to 1000,≥ 1000
"Cc1c(CN2CCC3(CCN(c4ncnc5sc(CC(F)(F)F)cc45)CC3)C2)ccc2[nH]c(C#N)cc12 [Example 26, 4-methyl-5-((8-(6-(2,2,2-trifluoroethyl)thieno[2,3-d]pyrimidin-4-yl)-2,8-diazaspiro[4.5]decan-2-yl)methyl)-1H-indole-2-carbonitrile]",< 100,100 to 1000
"FC(F)(F)Cc1cc2c(N3CCC4(CCN(Cc5ccc6[nH]ccc6c5)C4)C3)ncnc2s1 (stereo not drawn) [Example 28, 4-(7-((1H-indol-5-yl)methyl)-2,7-diazaspiro[4.4]nonan-2-yl)-6-(2,2,2-trifluoroethyl)thieno[2,3-d]pyrimidine]",< 100,100 to 1000
"FC(F)(F)Cc1cc2c(N3CCC4(CCN(Cc5ccc6cc[nH]c6c5)C4)C3)ncnc2s1 (stereo not drawn) [Example 29, 4-(7-((1H-indol-6-yl)methyl)-2,7-diazaspiro[4.4]nonan-2-yl)-6-(2,2,2-trifluoroethyl)thieno[2,3-d]pyrimidine]",< 100,100 to 1000
"N#Cc1ccc(CN2CCC3(CCN(c4ncnc5sc(CC(F)(F)F)cc45)C3)C2)cc1 (stereo not drawn) [Example 33, 4-((7-(6-(2,2,2-trifluoroethyl)thieno[2,3-d]pyrimidin-4-yl)-2,7-diazaspiro[4.4]nonan-2-yl)methyl)benzonitrile]",< 100,100 to 1000
"CC(=O)Nc1ccc(CN2CCC3(CCN(c4ncnc5sc(CC(F)(F)F)cc45)C3)C2)cc1 (stereo not drawn) [Example 34, N-(4-((7-(6-(2,2,2-trifluoroethyl)thieno[2,3-d]pyrimidin-4-yl)-2,7-diazaspiro[4.4]nonan-2-yl)methyl)phenyl)acetamide]",< 100,100 to 1000
"CS(=O)(=O)Nc1ccc(CN2CCC3(CCN(c4ncnc5sc(CC(F)(F)F)cc45)C3)C2)cc1 (stereo not drawn) [Example 38, N-(4-((7-(6-(2,2,2-trifluoroethyl)thieno[2,3-d]pyrimidin-4-yl)-2,7-diazaspiro[4.4]nonan-2-yl)methyl)phenyl)methanesulfonamide]",< 100,100 to 1000
"O=c1[nH]c2ccc(CN3CCC4(CCN(c5ncnc6sc(CC(F)(F)F)cc56)C4)C3)cc2[nH]1 (stereo not drawn) [Example 39, 5-((7-(6-(2,2,2-trifluoroethyl)thieno[2,3-d]pyrimidin-4-yl)-2,7-diazaspiro[4.4]nonan-2-yl)methyl)-1H-benzo[d]imidazol-2(3H)-one]",< 100,< 100
"O=c1[nH]c2ccc(CN3CCC4(CCN(c5ncnc6sc(CC(F)(F)F)cc56)C4)C3)cc2o1 (stereo not drawn) [Example 40, 6-((7-(6-(2,2,2-trifluoroethyl)thieno[2,3-d]pyrimidin-4-yl)-2,7-diazaspiro[4.4]nonan-2-yl)methyl)benzo[d]oxazol-2(3H)-one]",< 100,100 to 1000
"Cn1c(=O)[nH]c2cc(CN3CCC4(CCN(c5ncnc6sc(CC(F)(F)F)cc56)C4)C3)ccc21 (stereo not drawn) [Example 41, 1-methyl-5-((7-(6-(2,2,2-trifluoroethyl)thieno[2,3-d]pyrimidin-4-yl)-2,7-diazaspiro[4.4]nonan-2-yl)methyl)-1H-benzoldlimidazol-2(3H)-one]",< 100,< 100
"CC(=O)Nc1ccc(CN2CCC3(CCN(c4ncnc5sc(CC(F)(F)F)cc45)C3)C2)c(C)c1 (stereo not drawn) [Example 42, N-(3-methyl-4-((7-(6-(2,2,2-trifluoroethyl)thieno[2,3-d]pyrimidin-4-yl)-2,7-diazaspiro[4.4]nonan-2-yl)methyl)phenyl)acetamide]",< 100,100 to 1000
"FC(F)(F)Cc1cc2c(N3CCC4(CCN(Cc5ccccc5)C4)C3)ncnc2s1 (stereo not drawn) [Example 43, 4-(7-benzyl-2,7-diazaspiro[4.4]nonan-2-yl)-6-(2,2,2-trifluoroethyl)thieno[2,3-d]pyrimidine]",< 100,100 to 1000
"CC(=O)Nc1ccc(CN2CCC3(CCN(c4ncnc5sc(CC(F)(F)F)cc45)C3)C2)c(Cl)c1 (stereo not drawn) [Example 44, N-(3-chloro-4-((7-(6-(2,2,2-trifluoroethyl)thieno[2,3-d]pyrimidin-4-yl)-2,7-diazaspiro[4.4]nonan-2-yl)methyl)phenyl)acetamide]",< 100,100 to 1000
"CC(=O)Nc1ccc(CN2CCC3(CCN(c4ncnc5sc(CC(F)(F)F)cc45)C3)C2)c(F)c1 (stereo not drawn) [Example 45, N-(3-fluoro-4-((7-(6-(2,2,2-trifluoroethyl)thieno[2,3-d]pyrimidin-4-yl)-2,7-diazaspiro[4.4]nonan-2-yl)methyl)phenyl)acetamide]",< 100,100 to 1000
